Assay results published in publication PMC9124243 (Cell chemical biology, 2021).

What was measured:
[1] = molecular target: full-length apo DnaK (DnaK^FL) (Mycobacterium tuberculosis, UniProt P9WMJ9, T175A); format: binding
DnaK^NBD = format: binding; conditions: ITC
Mtb DnaK mutants [2] = molecular target: Mtb DnaK mutants (Mycobacterium tuberculosis, UniProt P9WMJ9); format: biochemical
Mtb DnaK mutants [3] = molecular target: Mtb DnaK mutants (Mycobacterium tuberculosis, UniProt P9WMJ9, E514A); format: biochemical
Mtb DnaK mutants [4] = molecular target: Mtb DnaK mutants (Mycobacterium tuberculosis, UniProt P9WMJ9, R127A); format: biochemical
[5] = molecular target: Mtb DnaK oligomers and DnaK-GrpE complex (Mycobacterium tuberculosis, UniProt P9WMJ9, T175A); format: binding
[6] = molecular target: apo, ATP-bound or ADP-bound DnaK T175A (Mycobacterium tuberculosis, UniProt P9WMJ9, T175A)
[7] = molecular target: Mtb DnaK Phe400Ala, Thr401Ala (Mycobacterium tuberculosis, UniProt P9WMJ9, F400A); format: binding

Question: How did the “stoichiometry TP: DnaK” value [1] turn out when CCC[C@H](NC(=O)[C@@H]1[C@H]2CCC[C@H]2CN1C(=O)[C@@H](NC(=O)[C@@H](NC(=O)c1cnccn1)C1CCCCC1)C(C)(C)C)C(=O)C(=O)NC1CC1 [TP, Telaprevir] was run?
Answer: Its value is ~ 0.5.

Question: And the “interaction with DnaK^NBD” value (DnaK^NBD)?
Answer: The value was “no interaction”.

Question: What about the “ATPase activity of DnaK lacking last ~110 residues (A513-K625)” value (Mtb DnaK mutants [2]) of the same compound?
Answer: The value was “still disrupted ATPase activity”.

Question: And the “increase in the IC50 value compared to wild-type” value (Mtb DnaK mutants [3])?
Answer: The value was 1.4 fold.

Question: What about the “ATPase activity of DnaK Arg127Ala with excess TP” value (Mtb DnaK mutants [4]) of the same compound?
Answer: Its value is “tolerance to excess TP”.

Question: And the “oligomeric state of apo DnaK” value [5]?
Answer: Its value is “inhibited formation of dimers and higher order oligomers”.

Question: And the “cleavage of DnaK by proteinase K” value [6]?
Answer: Its value is “protects full-length DnaK from cleavage”.

Question: Which results are given for CNC(=O)[C@H]1O[C@@H](n2cnc3c(NCc4cccc(I)c4)nc(Cl)nc32)[C@H](O)[C@@H]1O [MECA, 2Cl-IB-MECA]?
Answer: binding to DnaK alone [1]: does not bind to DnaK alone; DnaK-GrpE complex formation [5]: not affected

Question: For “FL-β-Ala-Asn-Arg-Leu-Leu-Leu-Thr-Gly-OH [FL-NR]”, which “EC50 for Phe400Ala relative to WT” value [7] is on record?
Answer: The value was ~ 40 fold.
